Results published in PMC7946776 (Journal of immunology (Baltimore, Md. : 1950), 2021).

Biological target: mouse Asah2 (Mus musculus, UniProt Q9JHE3)
Experiment: fluorogenic ceramidase activity assay
Type: biochemical

mouse Asah2, sequence (Q9JHE3 whole entry): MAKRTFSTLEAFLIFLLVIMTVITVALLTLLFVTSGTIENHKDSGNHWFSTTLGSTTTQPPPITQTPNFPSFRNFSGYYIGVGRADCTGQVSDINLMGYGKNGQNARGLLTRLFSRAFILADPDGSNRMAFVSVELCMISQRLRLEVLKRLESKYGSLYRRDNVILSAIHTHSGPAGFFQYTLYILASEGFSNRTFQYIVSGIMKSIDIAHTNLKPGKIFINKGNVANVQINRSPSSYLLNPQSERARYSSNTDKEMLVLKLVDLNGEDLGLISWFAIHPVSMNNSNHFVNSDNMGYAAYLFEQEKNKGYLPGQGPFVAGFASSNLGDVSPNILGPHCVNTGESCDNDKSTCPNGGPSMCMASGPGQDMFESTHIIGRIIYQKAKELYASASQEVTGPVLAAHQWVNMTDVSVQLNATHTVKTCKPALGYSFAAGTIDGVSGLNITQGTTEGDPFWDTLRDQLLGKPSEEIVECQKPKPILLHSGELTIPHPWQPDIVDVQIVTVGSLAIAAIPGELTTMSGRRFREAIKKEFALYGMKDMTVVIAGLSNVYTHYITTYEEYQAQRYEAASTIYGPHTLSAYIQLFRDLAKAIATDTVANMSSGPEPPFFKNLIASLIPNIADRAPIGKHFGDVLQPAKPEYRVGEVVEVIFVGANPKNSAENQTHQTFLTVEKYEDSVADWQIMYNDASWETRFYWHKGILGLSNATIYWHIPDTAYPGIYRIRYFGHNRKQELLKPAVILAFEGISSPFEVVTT

Q: With `O=c1nc(Nc2cccc(Cl)c2)oc2cc(Cl)oc(=O)c12` [NC06, 7-chloro-2-(3-chloroanilino)pyrano[3,4-e][1,3]oxazine-4,5-dione] as the compound, how does the IC50 read?
A: 30.2 µM
